Source: patent US4649145A, “Thiazole derivatives” (Hoechst UK Limited, priority 1982, dated 1987)

tested on: gastric acid secretion in the perfused rat stomach; experiment: antisecretory activity in the perfused rat stomach (inhibition of histamine- or pentagastrin-stimulated gastric acid secretion); format: in vivo; settings: Rattus norvegicus, iv, read-out: ID50 (amount of compound required to inhibit the stimulated secretion by 50%)
Description: Compounds of this invention were tested for antisecretory activity in the perfused rat stomach. The method of Ghosh and Schild, Brit. […] J. […] After the secretion plateau was reached, the test compound was administered i.v. and the amount of compound required to inhibit the stimulated secretion by 50% was determined.

SMILES	ED50 [mg/kg]
CN/C(=N/CCSCc1nc[nH]c1C)NC#N [Cimetidine, N--cyanoN'--methylN"--{2[(4methyl-5-imidazolyl)methyl-thio]ethyl}guanidin, reference compound]	2.5

same assay, conditions: iv; perfused rat stomach; i.v.; acid secretion stimulated by infusing either histamine or pentagastrin at a constant rate; read-out: ID50 (amount of compound required to inhibit the stimulated secretion by 50%)

SMILES	ED50 [mg/kg]
NC(N)=Nc1nc(CSCCNC2=NC(=O)C(=CC=Cc3ccco3)N2)cs1 [Compound 86]	0.02
CCCCCC=C1NC(NCCSCc2csc(N=C(N)N)n2)=NC1=O [Compound 89]	0.15
CC1NC(NCCSCc2csc(N=C(N)N)n2)=NC1=O (centres unmarked) [Compound 65]	0.7
CC(C)=C1NC(NCCSCc2csc(N=C(N)N)n2)=NC1=O [Compound 91]	0.18
NC(N)=Nc1nc(CSCCNC2=NC(=O)C(=Cc3cccnc3)N2)cs1 [Compound 97]	0.5
NC(N)=Nc1nc(CSCCNC2=NC(=O)C(=Cc3ccc([N+](=O)[O-])cc3)N2)cs1 [Compound 82]	0.6
CCCCC1NC(NCCSCc2csc(N=C(N)N)n2)=NC1=O (centres unmarked) [Compound 69]	0.15
NC(N)=Nc1nc(CSCCNC2=NC(=O)C(=Cc3cccc(Oc4ccccc4)c3)N2)cs1 [Compound 96, 2[2-[(2-Guanidino-4-thiazolyl)]methylthio]ethylamino-5-(3-phenoxybenzylidenyl)-imidazolidin-4-one]	10
NC(N)=Nc1nc(CSCCNC2=NC(=O)C(=Cc3ccco3)N2)cs1 [Compound 85]	0.2
CCC(C)C=C1NC(NCCSCc2csc(N=C(N)N)n2)=NC1=O (centres unmarked) [Compound 93]	0.07
CC(C)CC1NC(NCCSCc2csc(N=C(N)N)n2)=NC1=O (centres unmarked) [Compound 71]	0.2
NC(N)=Nc1nc(CSCCNC2=NC(=O)C(Cc3ccccc3)N2)cs1 (centres unmarked) [Compound 74]	2.5
CCCCCCC1NC(NCCSCc2csc(N=C(N)N)n2)=NC1=O (centres unmarked) [Compound 72]	0.16
CCC(C)C1NC(NCCSCc2csc(N=C(N)N)n2)=NC1=O (centres unmarked) [Compound 70]	1.5
CC(C)C=C1NC(NCCSCc2csc(N=C(N)N)n2)=NC1=O [Compound 92]	0.07
CCCCC=C1NC(NCCSCc2csc(N=C(N)N)n2)=NC1=O [Compound 94]	0.06
COc1ccc(C=C2NC(NCCSCc3csc(N=C(N)N)n3)=NC2=O)cc1 [Compound 81]	1.2
CC1(C)NC(NCCSCc2csc(N=C(N)N)n2)=NC1=O [Compound 78]	1
NC(N)=Nc1nc(CSCCNC2=NC(=O)C(=Cc3ccc(C(F)(F)F)cc3)N2)cs1 [Compound 83]	3.5
NC(N)=Nc1nc(CSCCNC2=NC(=O)C(=Cc3ccccc3)N2)cs1 [Compound 80]	0.5
CC=C1NC(NCCSCc2csc(N=C(N)N)n2)=NC1=O [Compound 87]	0.1
NC(N)=Nc1nc(CSCCNC2=NC(=O)CN2)cs1 [Compound 64]	0.45
CCCC=C1NC(NCCSCc2csc(N=C(N)N)n2)=NC1=O [Compound 88]	0.1
NC(N)=Nc1nc(CSCCNC2=NC(=O)C(=C3CCCCC3)N2)cs1 [Compound 90]	0.18
NC(N)=Nc1nc(CSCCNC2=NC(=O)C(c3ccccc3)(c3ccccc3)N2)cs1 [Compound 77]	0.5
